Experimental data as given in patent US12265082B2, “Detecting microbial infection in wounds” (SYNOVO GMBH, priority 2016, dated 2025).
Residues, ends and D or L forms follow the SMILES beside them. *: point of attachment. X5 = 4‑(N-piperazino)phenyl‑bis(4-dimethylaminophenyl)carbenium, CN(C)c1ccc([C+](c2ccc(N(C)C)cc2)c2ccc(N3CCN(*)CC3)cc2)cc1; X9 = CN(C)c1ccc([C+](c2ccc(N(C)C)cc2)c2ccc(N3CCN(*)CC3)cc2)cc1

How the values were obtained:
[1] = Color change of allyl sulfophthalein dyes with pH, base or ammonia; assay type: physicochemical
elastase = test: Treatment with elastase, released dye fragment found by MS-analysis (synthesis examples); assay type: biochemical; settings: elastase species not stated
MPO = target: T1, MPO (Homo sapiens, UniProt P05164); test: Reaction of methoxy aniline derivative as substrate of MPO; assay type: biochemical
T1 sequence (P05164 49-745): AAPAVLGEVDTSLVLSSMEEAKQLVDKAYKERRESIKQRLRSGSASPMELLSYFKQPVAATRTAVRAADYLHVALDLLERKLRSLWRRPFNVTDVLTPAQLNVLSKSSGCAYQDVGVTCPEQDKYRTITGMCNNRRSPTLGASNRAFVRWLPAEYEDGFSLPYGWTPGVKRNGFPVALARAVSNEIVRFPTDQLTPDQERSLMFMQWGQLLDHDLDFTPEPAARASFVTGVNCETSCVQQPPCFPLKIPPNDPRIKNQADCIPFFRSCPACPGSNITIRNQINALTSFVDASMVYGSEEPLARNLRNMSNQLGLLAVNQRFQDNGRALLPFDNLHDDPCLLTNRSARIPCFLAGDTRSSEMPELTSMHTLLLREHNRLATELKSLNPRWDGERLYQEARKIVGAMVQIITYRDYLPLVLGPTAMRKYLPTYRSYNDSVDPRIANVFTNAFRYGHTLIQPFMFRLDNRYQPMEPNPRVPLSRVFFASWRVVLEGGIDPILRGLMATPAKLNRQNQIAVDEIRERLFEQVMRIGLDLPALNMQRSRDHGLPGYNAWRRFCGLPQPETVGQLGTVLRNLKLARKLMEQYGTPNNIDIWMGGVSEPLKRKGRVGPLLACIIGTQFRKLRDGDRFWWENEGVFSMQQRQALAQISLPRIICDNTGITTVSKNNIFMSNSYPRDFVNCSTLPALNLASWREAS
Excerpt: The ideal ratio by mass is circa 2:8 aniline: product of example 10. The most efficient reaction occurs when the divalent anion is sulphuric acid, however, disulfonic substituted aromatic systems and phosphoric acid can also be used with diminished rate. HC1 provides only limited reaction. On reaction, one of the products of MPO oxidation appears to be the dimer of the two aniline components (see FIG. 13).

[2] = target: pancreatic porcine elastase (Sus scrofa, UniProt P00772); test: Enzyme hydrolysis of substrates by pancreatic porcine elastase, cleavage products by ion trap MS; settings: mass peak at m/z=484
Protocol: (§1) Appearance of the assay mixture was either a clear solution, a suspension or a gel, depending on the properties of the enzyme substrate. Incubation was performed at 37° C. After 3 and 20 h, 10 μL samples were taken and the enzyme was denatured by addition of 10 μL MeOH to each sample. After mixing and incubation at −20° C. for 20 min the samples were centrifuged at 13.000 rpm for 10 min. Each assay included a control without enzyme, containing 1 mg/mL to 5 mg/mL substrate and analysis was performed in the same way and in parallel to the enzyme-containing assays. The supernatant after MeOH precipitation was analyzed via ion trap MS, either [M+H]+ or [M−H]−, depending on the properties of the molecule and the expected cleavage products.

[3] = target: T2, human elastase from leucocytes (Homo sapiens, UniProt P08246); test: Enzyme hydrolysis of substrates by human elastase from leucocytes, cleavage products by ion trap MS; settings: mass peak at m/z=484
T2 sequence (P08246 30-267): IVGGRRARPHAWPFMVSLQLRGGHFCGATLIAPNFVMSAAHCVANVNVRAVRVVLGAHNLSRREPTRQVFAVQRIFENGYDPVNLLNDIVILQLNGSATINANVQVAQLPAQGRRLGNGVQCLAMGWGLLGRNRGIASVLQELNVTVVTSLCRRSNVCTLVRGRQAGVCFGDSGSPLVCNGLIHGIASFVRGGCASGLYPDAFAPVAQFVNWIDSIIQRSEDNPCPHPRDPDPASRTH
Protocol: as §1

pancreatic porcine elastase, sequence (P00772 27-266): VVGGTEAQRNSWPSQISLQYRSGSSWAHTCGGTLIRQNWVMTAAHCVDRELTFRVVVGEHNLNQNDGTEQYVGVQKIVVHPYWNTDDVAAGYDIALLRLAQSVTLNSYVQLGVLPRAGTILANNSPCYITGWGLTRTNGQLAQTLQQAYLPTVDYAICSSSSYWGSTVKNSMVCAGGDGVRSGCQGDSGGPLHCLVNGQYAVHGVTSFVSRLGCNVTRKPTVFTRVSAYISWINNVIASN

| Molecule | color change with pH / base / ammonia [1] | release of dye fragment on treatment with elastase (elastase) | other results |
| --- | --- | --- | --- |
| C=CCOc1ccc(C2(c3ccc(O)c(Cl)c3)OS(=O)(=O)c3ccccc32)cc1Cl (centres unmarked) [Example 95, O-Allyl Chlorophenol Red] | no longer changed color with pH |  |  |
| CC(N)C(=O)NC(C)C(=O)N1CCCC1C(=O)NC(C(=O)NC(C)C(=O)N1CCN(c2ccc([C+](c3ccc(N(C)C)cc3)c3ccc(N(C)C)cc3)cc2)CC1)C(C)C (stereo not drawn) [Example 71, 4-([4-{H-Ala-Ala-Pro-Val-Ala}[SEQ ID NO: 28]amido N-piperazino]phenyl)-bis-(4-dimethyl-aminophenyl)-carbenium ion] (H-AAPVA-X9; configuration not given here) |  | released A-CV |  |
| Bis-(4-dimethylaminophenyl)-(4-[4-N-{6-N-valinoyl)aminohexanoyl}]piperazinophenyl)-carbenium ion [Example 72] |  | releases no Ahx-CV |  |
| C-Allyl Bromophenol Red [Example 97] | color changed with ammonia to violet |  |  |
| CCCCCCCCCCCCC(O)CNc1cc(OC)c(NC(=O)c2ccccc2)cc1OC (racemic) [Example 10, N-(1-[2-Hydroxy]Tetradecanyl) Fast Blue RR (N-4-(1,3-Dimethoxy-2-N-Benzoylamidophenyl)-N′-Rac-(2-Hydroxy-n-Tetradecyl)-Amine)] |  |  | reaction as substrate of MPO (MPO): can be a direct substrate of MPO |
| CMC 9M31F-AAPF-RBB [Example 55] |  | release of the dye |  |
| Fmoc-AAPF-aminoethyl-(Remazol Black B)-(N′-acetyl)-ethylamide [Example 53] |  | yield the mono-acetylated-Remazol Black B-amino derivative |  |
| C-Allyl Chlorophenol Red [Example 96] | changed color when treated with base to deep violet |  |  |
| 4-([4-{H-Ala-Ala-Pro-Val-Ala}amido N-piperazino]phenyl)-bis-(4-dimethyl-aminophenyl)-carbenium ion polyacrylamide (H-AAPVA-X5; also: polyacrylamide) [Example 71e] |  |  | release of A-CV on treatment with porcine elastase [2]: releases A-CV; release of A-CV on treatment with human elastase [3]: releases A-CV |
| CMC 9M31F-AAPFA-RBB [Example 54] |  | release of the dye |  |
